In patent publication US20160368873A1, “Optically Active Form of Mepenzolate, and Ameliorating Agent for Chronic Obstructive Pulmonary Disease Which Contains Same as Active Ingredient” (LTT BIO-PHARMA CO., LTD., priority 2014, published 2016):

Assays:
[1] = Concentration in lung tissue after airway administration (Test Example 1); format: in vivo; conditions: ICR mice, airway administration 20 mg/kg, chiral HPLC
Method: The test samples were divided into 300 μL aliquots and subjected to ultrafiltration using an Amicon ultra-0.5 centrifugal filter.
The HPLC conditions were as follows.
Detector: Waters 2695 Alliance separation module and Waters 2996 photodiode array detector (manufactured by Waters Corporation)
Eluent: Solvent A (Water containing 0.1 M hexafluorophosphate)/Solvent B (acetonitrile)
Mobile Phase: 70% Solvent A/30% Solvent B
Measuring wavelength: 220 nm

[2] = molecular target: T1, human M3 muscarinic receptor (Homo sapiens, UniProt P20309); assay: Receptor binding ability (in vitro) (1), [3H]NMS competitive inhibition (Test Example 2.1); conditions: CHO-K1 membrane fraction, 2.0 nM [3H]NMS
T1 construct: expressed in transfected cells; host or cells: CHO-K1 cells (membrane fraction)
T1 sequence (P20309 whole entry): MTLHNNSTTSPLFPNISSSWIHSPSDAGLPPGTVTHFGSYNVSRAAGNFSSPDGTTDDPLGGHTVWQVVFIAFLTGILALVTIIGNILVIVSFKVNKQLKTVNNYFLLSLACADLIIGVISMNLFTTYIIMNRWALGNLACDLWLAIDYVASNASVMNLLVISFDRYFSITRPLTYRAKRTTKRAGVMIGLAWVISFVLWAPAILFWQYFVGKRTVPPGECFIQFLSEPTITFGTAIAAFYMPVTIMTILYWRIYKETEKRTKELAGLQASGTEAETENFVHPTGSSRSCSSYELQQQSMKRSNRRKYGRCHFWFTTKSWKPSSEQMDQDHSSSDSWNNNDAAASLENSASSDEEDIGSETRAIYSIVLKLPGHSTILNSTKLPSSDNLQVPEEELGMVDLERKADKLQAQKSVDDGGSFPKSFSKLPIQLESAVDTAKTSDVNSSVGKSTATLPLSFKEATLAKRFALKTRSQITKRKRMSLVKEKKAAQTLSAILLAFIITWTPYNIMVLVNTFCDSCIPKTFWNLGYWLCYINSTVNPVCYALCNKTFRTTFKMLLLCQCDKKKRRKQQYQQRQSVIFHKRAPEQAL
Method: Nonspecific binding was measured in the presence of 1 μM atropine.
The resulting filter, which was dried and a solid scintillator, MeltiLex A (manufactured by PerkinElmer, Inc.) was melted thereon, was measured and quantified by using a β-counter (MicroBeta microplate scintillation counter (Trilux: manufactured by PerkinElmer, Inc.).

ICR mice [3] = assay: Effect on methacholine-induced airway constriction (1) (Test Example 3.1); format: in vivo; conditions: 3.75 μg/kg via the airway, 1 h before nebulized methacholine, FIG. 5
Method: (§1) Increase in airway resistance induced by methacoline was measured.
4 to 6 week old ICR mice received 1 mg/mL methacoline by nebulization over 20 seconds and this was repeated five times. After each administration of methacoline was completed, the airway resistance was measured by a snap shot technique. All the data were analyzed by using FlexiVent software.
(§2) One hour after administration, the mice received five exposures to nebulized methacoline by the above-mentioned method and the airway resistance at the time of each administration was measured.

ICR mice [4] = assay: Effect on methacholine-induced airway constriction (2) (Test Example 3.2); format: in vivo; conditions: 3.8 μg/kg via the airway, 1 h before nebulized methacholine, FIG. 7
Method: as §1
4 to 6 week old ICR mice were anesthetized with chloral hydrate (500 mg/kg), a tracheostomy was performed, and a metal tube […] in diameter was inserted into the trachea.
The mice were mechanically ventilated at 150 respirations/minute with a displacement per one cycle of 8.7 mL/kg and a positive end-expiratory pressure of 2 to 3 cmH2O.
The mice were exposed to nebulized methacholine (5 mg/kg) for 20 seconds four times at intervals of 40 seconds to induce airway resistance by methacholine, and the airway resistance was measured by a snap shot technique.
as §2
The data were analyzed by using FlexiVent software.

ICR mice [5] = assay: Effect on porcine pancreatic elastase (PPE)-induced inflammation (1) (Test Example 4.1); format: in vivo; conditions: 38 μg/kg via the airway once, PPE 100 μg per mouse 1 h later, BALF 24 h after PPE, FIG. 8
Method: Then, broncho alveolar lavage fluid (BALF) was collected from the lung 24 hours after administration of porcine pancreatic elastase and a total cell count and a neutrophil count were measured.

ICR mice [6] = assay: Effect on porcine pancreatic elastase (PPE)-induced inflammation (2) (Test Example 4.2); format: in vivo; conditions: 7.5 μg/kg and 38 μg/kg via the airway once, PPE 20 U/kg 1 h later, BALF 6 h after PPE; for Total cell count in BALF: FIG. 9; for Neutrophil count in BALF: FIG. 10
Method: Then, broncho alveolar lavage fluid (BALF) was collected from the lung 6 hours after administration of porcine pancreatic elastase. The BALF was collected by washing the lung twice with saline containing heparin (50 U/mL) with the aid of a tracheostomy tube.
A total cell count of the collected BALF was measured by hemocytometer. The cells were centrifuged by using Cytospin 4 (registered trademark, manufactured by Thermo Electron Corporation) and then fixed with Diff-Quik reagent, and the neutrophil count was determined on the basis of the ratio of the neutrophil count to the total cell count.

ICR mice [7] = assay: Effect on PPE-induced inflammation (3), cytokine and chemokines in BALF by ELISA (Test Example 4.3); format: in vivo; conditions: 38 μg/kg via the airway, PPE 20 U/kg, FIGS. 11 to 14
Method: The levels of cytokine and chemokine in broncho alveolar lavage fluid (BALF) were measured as indications of an effect on PPE-induced inflammation.
Specifically, TNF-α ([…]), which is a pro-inflammatory cytokine, was measured as a cytokine that is an inflammatory factor and a macrophage inflammatory protein (MIP-2), a monocyte chemotactic protein (MCP-1), and a keratinocyte-derived chemokine (KC) were measured as an inflammatory chemokine.
The measurement of such a cytokine and chemokines in the BALF was performed by ELISA.

ICR mice [8] = assay: Fecal pellet output (level of constipation occurrence) after application of stress (Test Example 5); format: in vivo; conditions: 4.7 mg/kg intratracheally, 1 h later one-hour restraint stress, FIG. 15
Method: 4 to 6 week old ICR mice were put under stress by placing the mice in a 50 mL tube for one hour, the tube ensuring free breathing but restraining free movement, and the fecal pellet output (the level of constipation occurrence) at that time was measured.
The level of constipation occurrence was monitored by measuring the fecal pellet output during the above-mentioned period.

[9] = molecular target: T2, human M3 muscarinic receptor (hM3R) (Homo sapiens, UniProt P20309); assay: Receptor binding ability (in vitro) (2), [3H]NMS competitive inhibition, hM3R (Test Example 2.2); conditions: Table 2 and FIG. 3, compared to (R)-mepenzolate bromide and the racemate
T2 construct: expressed in transfected cells; host or cells: CHO-K1 cells (membrane fraction)
T2 sequence (P20309 whole entry): as above
Method: Membrane fractions of CHO—K1 cells overexpressing a human M3 muscarinic receptor (hM3R) or CHO—K1 cells overexpressing a human M2 muscarinic receptor (hM2R) were used to measure receptor binding ability by competitive inhibition assay with 1-[N-methyl-^3H]scopolamine methyl bromide ([^3H]NMS, specific activity: 85.5 Cimmol). The protein concentration of the cell membrane was 10.0 μg/well and the [^3H]NMS concentration was 2.0 nM.
A binding buffer (phosphate buffer/saline) was added to the reagents to make a total volume of 200 μL. […]
The resulting filter was dried for 30 minutes, and then, fixed to a solid scintillator, MeltiLex A (melt-on scintillation sheet; manufactured by PerkinElmer, Inc.). The radioactivity remaining on the filter was measured in a MicroBeta Trilux microplate scintillation counter (manufactured by PerkinElmer, Inc.).
An experimental IC50 was calculated by using an experimentally obtained constant (κd) of [^3H]NMS for hM3R or hM2R and the concentration thereof, and then, the affinity at equilibrium was determined as a competitive equilibrium dissociation constant (κi) value. In this regard, the κi value was calculated from three individual curves and modified by using Prism (produced by GraphPad Software, Inc.).

## C[N+]1(C)CCC[C@@H](OC(=O)C(O)(c2ccccc2)c2ccccc2)C1.[Br-] [R-form, (3R)-3-[(hydroxy) (diphenyl)acetoxy]-1,1-dimethylpiperidinium bromide]
[1]; 5 min after administration, (R)-Mep detected
  Concentration in lung tissue, (R)-Mep, 5 min.: 44.5 ± 11.5 μg/lung
[1]; 15 min after administration, (R)-Mep detected
  Concentration in lung tissue, (R)-Mep, 15 min.: 6.3 ± 4.2 μg/lung
[1]; 30 min after administration, (R)-Mep detected
  Concentration in lung tissue, (R)-Mep, 30 min.: 5.1 ± 1.3 μg/lung
[2]
  Binding to the M3 receptor (FIG. 1), in words: bound strongly to the M3 receptor
ICR mice [3]
  Effect of suppressing airway resistance (methacholine-induced): significant effect of suppressing airway resistance
ICR mice [4]
  Effect of suppressing airway resistance (methacholine-induced), low dose: significant effect of suppressing airway resistance
ICR mice [5]
  Neutrophil count in BALF: relatively stronger effect of decreasing
  Total cell count in BALF: relatively stronger effect of decreasing
ICR mice [6]
  Total cell count in BALF: effect of decreasing
  Neutrophil count in BALF: effect of decreasing
ICR mice [7]
  Inflammatory factors in BALF (TNF-α, MIP-2, MCP-1, KC): decreased inflammatory factors effectively
ICR mice [8]
  Level of constipation occurrence (fecal pellet output): highest level of constipation occurrence

## C[N+]1(C)CCC[C@@H](OC(=O)C(O)(c2ccccc2)c2ccccc2)C1.[Br-] (racemic) [racemate, mepenzolate bromide, reference compound]
[2]
  Binding to the M3 receptor (FIG. 1), in words: bound strongly to the M3 receptor
ICR mice [5]
  Neutrophil count in BALF: similarly effective
  Total cell count in BALF: similarly effective
ICR mice [6]
  Total cell count in BALF: effect of decreasing
  Neutrophil count in BALF: effect of decreasing
ICR mice [7]
  Inflammatory factors in BALF (TNF-α, MIP-2, MCP-1, KC): decreased inflammatory factors effectively

## C[N+]1(C)CCC[C@H](OC(=O)C(O)(c2ccccc2)c2ccccc2)C1.[Br-] [S-form, (3S)-3-[(hydroxy) (diphenyl)acetoxy]-1,1-dimethylpiperidinium bromide]
[1]; 5 min after administration, (S)-Mep detected
  Concentration in lung tissue, (S)-Mep, 5 min.: 36.4 ± 9.5 μg/lung
[1]; 15 min after administration, (S)-Mep detected
  Concentration in lung tissue, (S)-Mep, 15 min.: 7.6 ± 0.5 μg/lung
[1]; 30 min after administration, (S)-Mep detected
  Concentration in lung tissue, (S)-Mep, 30 min.: 6.2 ± 0.4 μg/lung
[2]
  Binding to the M3 receptor (FIG. 1), in words: weaker binding ability
[9]
  Affinity to hM3R (M3 receptor), in words: lower affinity
ICR mice [3]
  Effect of suppressing airway resistance (methacholine-induced): little effect
ICR mice [4]
  Effect of suppressing airway resistance (methacholine-induced), low dose: little effect
ICR mice [5]
  Neutrophil count in BALF: similarly effective
  Total cell count in BALF: similarly effective
ICR mice [6]
  Total cell count in BALF: effect of decreasing
  Neutrophil count in BALF: effect of decreasing
ICR mice [7]
  Inflammatory factors in BALF (TNF-α, MIP-2, MCP-1, KC): decreased inflammatory factors effectively
ICR mice [8]
  Level of constipation occurrence (fecal pellet output): low level of constipation occurrence
